Laboratory results taken from patent US12492173B2, “Herbicidal substituted N-tetrazolyl aryl carboxamides” (Bayer Aktiengesellschaft, priority 2019, dated 2025).

Tests used:
Format in all cases: in vivo
Veronica persica [1] = assay: Pre-emergence herbicidal action, VERPE; design: key to Herbicidal action against VERPE: % activity: 100 = plants have died, 0 = like control plants; settings: for herbicidal action VERPE / herbicidal activity VERPE: dosage 320 g/ha; for herbicidal activity VERPE: scored visually after 3 weeks vs untreated controls (100% = plants have died); for Herbicidal action against VERPE: comparative experiment
Outline: (§1)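 Sown pots (sandy loam) sprayed pre-emergence → greenhouse → visual rating at 3 weeks; % activity vs untreated control, 100% = dead.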

Viola tricolor = assay: Pre-emergence herbicidal action, VIOTR; design: key to Herbicidal action against VIOTR: % activity: 100 = plants have died, 0 = like control plants; settings: for herbicidal action VIOTR / herbicidal activity VIOTR: dosage 320 g/ha; for herbicidal activity VIOTR: scored visually after 3 weeks vs untreated controls (100% = plants have died); for Herbicidal action against VIOTR: comparative experiment
Outline: as §1

Abutilon theophrasti = assay: Post-emergence herbicidal action, ABUTH; design: key: % herbicidal action vs untreated; 100 = plants died, 0 = like control
Outline: (§2)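 After sowing into sandy loam, plants grew 2 to 3 weeks under greenhouse conditions until one leaf, then got a spray of compound as aqueous suspension or emulsion. Roughly three weeks on, activity was estimated visually against untreated pots.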

Matricaria inodora = assay: Post-emergence herbicidal action, MATIN; design: key: % herbicidal action vs untreated; 100 = plants died, 0 = like control
Outline: as §2

Veronica persica [2] = assay: Post-emergence herbicidal action, VERPE; design: key: % herbicidal action vs untreated; 100 = plants died, 0 = like control
Outline: as §2

Setaria viridis = assay: Pre-emergence herbicidal action, SETVI; design: key to Herbicidal action against SETVI: % activity: 100 = plants have died, 0 = like control plants; settings: for herbicidal activity SETVI / herbicidal action SETVI: dosage 320 g/ha; for herbicidal activity SETVI: scored visually after 3 weeks vs untreated controls (100% = plants have died); for Herbicidal action against SETVI: comparative experiment
Outline: as §1

[3] = comparative experiment, post-emergence, 20 g of a.i./ha
[4] = comparative experiment, post-emergence, 5 g of a.i./ha

SMILES	herbicidal action VERPE (Veronica persica [1]) [%]	herbicidal action VIOTR (Viola tricolor) [%]	herbicidal action ABUTH (Abutilon theophrasti; Dosage 80 g/ha)	herbicidal action MATIN (Matricaria inodora; Dosage 80 g/ha)	herbicidal action VERPE (Veronica persica [2]; Dosage 80 g/ha)	herbicidal activity SETVI (Setaria viridis) [%]	herbicidal activity VERPE (Veronica persica [1]) [%]	herbicidal activity VIOTR (Viola tricolor) [%]	herbicidal action ABUTH (Abutilon theophrasti; post-emergence, dosage 80 g/ha) [%]	herbicidal action MATIN (Matricaria inodora; post-emergence, dosage 80 g/ha) [%]	herbicidal action VERPE (Veronica persica [2]; post-emergence, dosage 80 g/ha) [%]	also measured
Cc1ccc(C(=O)Nc2nnnn2C)c(Cl)c1C[S+](C)[O-] (racemic) [Example 1-288]	90	90	90	100	100	–	–	–	–	–	–	–
CC[S+]([O-])Cc1c(C(F)(F)F)ccc(C(=O)Nc2nnnn2C)c1Cl (racemic) [Example 1-300]	–	–	–	–	–	100	100	100	90	100	100	–
Cn1nnnc1NC(=O)c1ccc(C(F)(F)F)c(C[S+]([O-])C2CC2)c1Cl (racemic) [Example 1-303]	–	–	–	–	–	100	100	100	100	100	100	–
COCC[S+]([O-])Cc1c(C(F)(F)F)ccc(C(=O)Nc2nnnn2C)c1Cl (racemic) [Example 1-306]	–	–	90	90	90	90	90	100	–	–	–	–
Cn1nnnc1NC(=O)c1ccc(C(F)(F)F)c(C[S+]([O-])CC(F)(F)F)c1Cl (racemic) [Example 1-312]	–	–	–	–	–	100	100	100	100	100	90	–
Cn1nnnc1NC(=O)c1ccc(I)c(C[S+](C)[O-])c1Cl (racemic) [Example 1-363]	–	–	–	–	–	100	100	100	100	100	100	Herbicidal action against SETVI (Setaria viridis; 20 g of a.i./ha): 90
CC[S+]([O-])Cc1c(C(F)(F)F)ccc(C(=O)Nc2nnnn2C)c1Br (racemic) [Example 1-384]	–	–	–	–	–	100	100	100	100	90	100	Herbicidal action against SETVI (Setaria viridis; 80 g of a.i./ha): 100; Herbicidal action against VIOTR (Viola tricolor; 80 g of a.i./ha): 100; Herbicidal action against ABUTH (Abutilon theophrasti; [3]): 90; Herbicidal action against MATIN (Matricaria inodora; [3]): 90; Herbicidal action against VERPE (Veronica persica [2]; [3]): 100
CSCc1c(C(F)(F)F)ccc(C(=O)Nc2nnnn2C)c1C [Example 1-83]	–	–	–	–	–	100	100	100	90	100	100	–
CCS(=O)(=O)Cc1c(C(F)(F)F)ccc(C(=O)Nc2nnnn2C)c1C [Example 1-88]	100	100	80	90	100	–	–	–	–	–	–	herbicidal action SETVI (Setaria viridis): 100%
Cc1c(C(=O)Nc2nnnn2C)ccc(C(F)F)c1C[S+](C)[O-] (stereo not shown) [Example 1-108]	90	100	80	100	100	–	–	–	–	–	–	herbicidal action SETVI (Setaria viridis): 100%
COc1c(C(=O)Nc2nnnn2C)ccc(C(F)(F)F)c1C[S+](C)[O-] (stereo not shown) [Example 1-135]	100	90	90	100	100	–	–	–	–	–	–	–
CSc1c(C(=O)Nc2nnnn2C)ccc(C(F)(F)F)c1C[S+](C)[O-] (stereo not shown) [Example 1-162]	–	–	–	–	–	100	90	100	100	100	100	–
CSc1c(C(=O)Nc2nnnn2C)ccc(C(F)F)c1C[S+](C)[O-] (stereo not shown) [Example 1-171]	–	–	100	90	100	100	100	100	–	–	–	–
CCSCc1c(C(F)(F)F)ccc(C(=O)Nc2nnnn2C)c1SCC [Example 1-182]	–	–	90	90	100	100	100	100	–	–	–	Herbicidal action against VERPE (Veronica persica [1]; 20 g of a.i./ha): 90; Herbicidal action against VIOTR (Viola tricolor; 20 g of a.i./ha): 80; Herbicidal action against ABUTH (Abutilon theophrasti; [4]): 70; Herbicidal action against VERPE (Veronica persica [2]; [4]): 100
CSCc1c(C)ccc(C(=O)Nc2nnnn2C)c1Cl [Example 1-287]	100	90	100	100	100	–	–	–	–	–	–	herbicidal action SETVI (Setaria viridis): 90%
CCSCc1c(C(F)(F)F)ccc(C(=O)Nc2nnnn2C)c1Cl [Example 1-299]	–	–	–	–	–	100	100	100	100	90	100	Herbicidal action against SETVI (Setaria viridis; 20 g of a.i./ha): 90; Herbicidal action against VERPE (Veronica persica [1]; 20 g of a.i./ha): 100; Herbicidal action against MATIN (Matricaria inodora; [4]): 80; Herbicidal action against VERPE (Veronica persica [2]; [4]): 100
Cn1nnnc1NC(=O)c1ccc(C(F)(F)F)c(CSC2CC2)c1Cl [Example 1-302]	–	–	–	–	–	100	100	100	100	90	90	–
Cn1nnnc1NC(=O)c1ccc(C(F)(F)F)c(CS(=O)(=O)C2CC2)c1Cl [Example 1-304]	–	–	–	–	–	100	100	100	100	90	100	–
COCCSCc1c(C(F)(F)F)ccc(C(=O)Nc2nnnn2C)c1Cl [Example 1-305]	–	–	–	–	–	100	100	100	100	100	90	–
CSCc1c(C(F)F)ccc(C(=O)Nc2nnnn2C)c1Cl [Example 1-320]	–	–	100	–	100	100	100	100	–	–	–	Herbicidal action against ABUTH (Abutilon theophrasti; [4]): 100; Herbicidal action against VERPE (Veronica persica [2]; [4]): 100
COc1c(C(=O)Nc2nnnn2C)ccc(Cl)c1CSC [Example 1-570]	80	80	–	–	–	–	–	–	–	–	–	Herbicidal action against VIOTR (Viola tricolor; 20 g of a.i./ha): 70; Herbicidal action against ABUTH (Abutilon theophrasti; post-emergence, dosage 80 g/ha): 90; Herbicidal action against MATIN (Matricaria inodora; post-emergence, dosage 80 g/ha): 90; Herbicidal action against VERPE (Veronica persica [2]; post-emergence, dosage 80 g/ha): 90
CCn1nnnc1NC(=O)c1ccc(S(C)(=O)=O)c(CS(C)(=O)=O)c1Cl [Example 2-280]	100	90	–	–	–	–	–	–	–	–	–	herbicidal action SETVI (Setaria viridis): 90%; Herbicidal action against VERPE (Veronica persica [2]; post-emergence, dosage 80 g/ha): 80
CCn1nnnc1NC(=O)c1ccc(C(F)F)c(CSC)c1Cl [Example 2-320]	–	–	100	–	100	100	100	100	–	–	–	–
CCCn1nnnc1NC(=O)c1ccc(S(C)(=O)=O)c(CSC)c1C [Example 3-37]	100	100	80	90	100	–	–	–	–	–	–	–
CCCn1nnnc1NC(=O)c1ccc(C(F)(F)F)c(C[S+](C)[O-])c1OC (stereo not shown) [Example 3-135]	–	100	100	100	–	–	–	–	–	–	–	herbicidal action SETVI (Setaria viridis): 100%
CCCn1nnnc1NC(=O)c1ccc(C(F)F)c(CS(=O)(=O)CC)c1Cl [Example 3-325]	–	–	100	–	–	100	–	100	–	–	–	–
CCCn1nnnc1NC(=O)c1ccc(C(F)(F)F)c(CS(C)(=O)=O)c1Br [Example 3-382]	100	90	100	90	90	–	–	–	–	–	–	–
CCS(=O)(=O)c1c(C(F)(F)F)ccc(C(=O)Nc2nnnn2C)c1Br [Example V-13, 2-bromo-3-(ethylsulfonyl)-N-(1-methyl-1-1H-tetrazol-5-yl)-4-(trifluoromethyl)benzamide, reference compound]	–	–	–	–	–	–	–	–	–	–	–	Herbicidal action against SETVI (Setaria viridis; 80 g of a.i./ha): 0; Herbicidal action against VERPE (Veronica persica [1]; 80 g of a.i./ha): 0; Herbicidal action against MATIN (Matricaria inodora; [3]): 0; Herbicidal action against VERPE (Veronica persica [2]; [3]): 0
